Results published in patent US7462600B2, “Macrolides” (Pfizer Inc, priority 2004, dated 2008).
Values after ≈ are worked out from the molar mass of the structure shown.

Legend:
Type in all cases: cell-based
[1] = tested on: Streptococcus pyogenes 1079; test: MIC, microtiter broth dilution (NCCLS M100-S14), S. pyogenes 1079 (ermB); conditions: Streptococcus pyogenes 1079
Procedure, shortened: (§1)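 Panel strains, including macrolide-resistant isolates and their susceptible parents where available, are exposed to serial compound dilutions in microtiter trays. Growth inhibition is scored as MIC under NCCLS M100-S14 standards.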

[2] = tested on: Streptococcus pneumoniae 1016; test: MIC, microtiter broth dilution (NCCLS M100-S14), S. pneumoniae 1016 (susceptible); conditions: Streptococcus pneumoniae 1016
Procedure, shortened: as §1

[3] = tested on: Streptococcus pneumoniae 1095; conditions: Streptococcus pneumoniae 1095; microtiter broth dilution
Procedure, shortened: as §1

[4] = tested on: Streptococcus pneumoniae 1175; conditions: Streptococcus pneumoniae 1175; microtiter broth dilution
Procedure, shortened: as §1

[5] = tested on: Haemophilus influenzae 1218; test: MIC, microtiter broth dilution (NCCLS M100-S14), H. influenzae 1218 (susceptible); conditions: Haemophilus influenzae 1218
Procedure, shortened: as §1

Row | Compound | MIC S. pyogenes 1079 [1] [µg/mL] | MIC S. pneumo. 1016 [2] [µg/mL] | MIC S. pneumo. 1095 [3] [µg/mL] | MIC S. pneumo. 1175 [4] [µg/mL] | MIC H. influenzae 1218 [5] [µg/mL]
1 | CCC1OC(=O)C(C)C(=O)C(C)C(OC2OC(C)CC(N(C)C)C2O)C(C)(OC)CC(C)C(=O)C(C)C2N(C3CN(S(=O)(=O)c4cccc(-c5csnn5)c4)C3)C(=O)OC12C (stereo not shown) [Example 3.63, 3-descladinosy-11,12-dideoxy-6-O-methyl-3-oxo-12,11-(oxycarbonyl-(1-(3-(1,2,3-thiadiazol-4-yl)benzenesulfonyl)-azetidin-3-yl)-imino)-erythromycin A] | 0.25 (≈ 0.28 µM) | <0.06 | <0.06 | <0.06 | <0.06
2 | CCC1OC(=O)C(C)C(=O)C(C)C(OC2OC(C)CC(N(C)C)C2O)C(C)(OC)CC(C)C(=O)C(C)C2N(CC3CN(Cc4n[nH]c5ccccc45)C3)C(=O)OC12C (stereo not shown) [4.22] | 32 (≈ 39.4 µM) | <0.06 | 2 (≈ 2.46 µM) | 0.25 (≈ 0.308 µM) | 0.12 (≈ 0.148 µM)
3 | CCC1OC(=O)C(C)C(=O)C(C)C(OC2OC(C)CC(N(C)C)C2O)C(C)(OC)CC(C)C(=O)C(C)C2N(CC3CN(C(=O)c4ccc5cnccc5n4)C3)C(=O)OC12C.O=CO (stereo not shown) [4.41] | >64.00 | <0.06 | 0.25 | <0.06 | 2
4 | CCC1OC(=O)C(C)C(=O)C(C)C(OC2OC(C)CC(N(C)C)C2O)C(C)(OC)CC(C)C(=O)C(C)C2N(C3CN(S(=O)(=O)c4cccc(-c5ncno5)c4)C3)C(=O)OC12C (stereo not shown) [Example 3.59] | 64 (≈ 73.1 µM) | <0.06 | 8 (≈ 9.13 µM) | 8 (≈ 9.13 µM) | 16 (≈ 18.3 µM)
5 | CCC1OC(=O)C(C)C(=O)C(C)C(OC2OC(C)CC(N(C)C)C2O)C(C)(OC)CC(C)C(=O)C(C)C2N(C3CN(S(=O)(=O)c4ccc(-n5cncn5)cc4)C3)C(=O)OC12C (stereo not shown) [Example 3.52, 3-descladinosyl-11,12-dideoxy-6-O-methyl-3-oxo-12,11-(oxycarbonyl-(1-(4-(1H-1,2,4-triazol-1-yl)benzenesulfonyl)-azetidin-3-yl)-imino)-erythromycin A] | 4 (≈ 4.57 µM) | <0.06 | 0.12 (≈ 0.137 µM) | 0.12 (≈ 0.137 µM) | 2 (≈ 2.29 µM)
6 | CCC1OC(=O)C(C)C(=O)C(C)C(OC2OC(C)CC(N(C)C)C2O)C(C)(OC)CC(C)C(=O)C(C)C2N(CC3CN(Cc4cccc5nc[nH]c45)C3)C(=O)OC12C (stereo not shown) [4.20] | 16 (≈ 19.7 µM) | <0.06 | 0.12 (≈ 0.148 µM) | 0.25 (≈ 0.308 µM) | 0.25 (≈ 0.308 µM)
7 | CCC1OC(=O)C(C)C(=O)C(C)C(OC2OC(C)CC(N(C)C)C2O)C(C)(OC)CC(C)C(=O)C(C)C2N(C3CN(Cc4c(Br)cnc5ncccc45)C3)C(=O)OC12C (stereo not shown) [Example 1.75, 3-descladinosyl-11,12-dideoxy-6-O-methyl-3-oxo-12,11-(oxycarbonyl-(1-(3-bromo-1,8-naphthyridine-4-methyl)-azetidin-3-yl)-imino)-erythromycin A] | <0.063 | <0.063 | <0.063 | <0.063 | 1 (≈ 1.12 µM)
8 | CCC1OC(=O)C(C)C(=O)C(C)C(OC2OC(C)CC(N(C)C)C2O)C(C)(OC)CC(C)C(=O)C(C)C2N(C3CN(S(=O)(=O)c4ccc(-c5nnn[nH]5)cc4)C3)C(=O)OC12C (stereo not shown) [Example 3.84, 4-(1H-tetrazol-5-yl)benzenesulfonyl] | >64.00 | 1 (≈ 1.14 µM) | >64.00 | 16 (≈ 18.3 µM) | 32 (≈ 36.5 µM)
